These results are taken from patent US6930113B2, “Nitrosated and nitrosylated phosphodiesterase inhibitors, compositions and methods of use” (Nitromed, Inc., priority 1996, dated 2005).

The assay has as its system Human corpus cavernosum tissue. Kind of assay: In vitro comparative relaxation responses (isometric tension of tissue strips in organ chambers). Type of assay: cell-based. Conditions: doses of 10 μM and 30 μM; tissue contracted with phenylephrine 7×10^−7 M; compared with equimolar dipyridamole; FIG. 58. An excerpt:
Human corpus cavernosum tissue biopsies were obtained at the time of penile prosthesis implantation from impotent men. The tissue was maintained in a chilled Krebs-bicarbonate solution prior to assay. The tissue was cut into strips of 0.3×0.3×1 cm and suspended in organ chambers for isometric tension measurement. Tissues were incrementally stretched until optimal isometric tension for contraction was obtained. Once this was achieved, the tissues were contracted with phenylephrine (7×10^−7 M) and once a stable contraction was achieved, the tissues were exposed to either dipyridamole or the compound of Example 1 (10^−6 to 3×10^−5 M) by cumulative additions to the chamber. At the end of the experiment, papaverine (10^−4 M) was added to obtain maximal relaxation. […] Data were expressed as the percent loss in tone from the phenylephrine-induced contraction (0%=phenylephrine contraction; −100%=tone after administration of papaverine).

The structures appear in SMILES notation.

`CC(C)(CC(=O)OCCN(CCOC(=O)CC(C)(C)SN=O)c1nc(N2CCCCC2)c2nc(N(CCOC(=O)CC(C)(C)SN=O)CCOC(=O)CC(C)(C)SN=O)nc(N3CCCCC3)c2n1)SN=O` [Example 1, 2,6-bis(Diethyl(3-methyl-3-(nitrosothio)butyric acid ester)amino)-4,8-dipiperidinopyrimido-[5,4-d]-pyrimidine]: the “relaxing the phenylephrine-induced contraction (percent loss in tone from the phenylephrine-induced contraction)” value was “more efficacious”.
